According to patent US6469013B2, “Therapeutic compounds” (Parker Hughes Institute, priority 1998, dated 2002):
pEC50: −log10 of the molar value.

Experiments:
NALM-6 cells = assay: In situ TUNEL apoptosis assay; assay type: cell-based; details: Homo sapiens, 10-500 μM, 48 hours, read-out: EC50, percentage of apoptotic cells (TUNEL)
Text: Apoptosis Assays Cells were examined for apoptotic changes after treatment with compound 6 by the in situ terminal […] transferase-mediated dUTP end-labeling (TUNEL) assay using the ApopTag apoptosis detection kit (Oncor, Gaithersburg, Md.) according to the manufacturer's recommendations, as detailed in our earlier reports (Zhu, D. -M., et al., Clin. Can. Res. 4: 2967-2976, 1998; D'Cruz, O., P., G., and Uckun, F. M. Biology of Reproduction. 58: 1515-1526, 1998).
To confirm that compound 6 can induce apoptosis in leukemia cells, the TdT-mediated labeling of 3′-OH termini with digoxigenin-conjugated UTP using the in situ TUNEL assay method combined with confocal laser scanning microscopy was employed. At 48 hours after treatment with compound 6 at concentrations ranging from 10 μM to 500 μM, NALM-6 cells were examined for digoxigenin-dUTP incorporation using FITC-conjugated anti-digoxigenin (green fluorescence) and propidium iodide counterstaining (red fluorescence). […] FIG. 8B.1 and 8B.2 depict the two-color confocal microscopy images of vehicle-treated control cells and cells treated with 100 μM compound 6. […] Because of their exquisite sensitivity in detecting DNA fragments released from a small percentage of apoptotic cells, the DNA gel assays of apoptosis are uniquely suited to examine the nonspecific toxicity of new antileukemic agents.

[1] = tested on: HaCaT human epidermal cells; assay: UVB-induced PGE2 release (EIA); assay type: cell-based; details: light or radiation study, UVB 25 mj/cm^2, 6 h, read-out: inhibition in UVB light induced prostaglandin release
Text: HaCaT, which is a spontaneously transformed human epidermal cell line (16) was maintained in Dulbecco's modified Eagle's medium (DMEM) supplemented with 10% fetal bovine serum (Summit Biotech, Ft. Collins, Colo.).
A bank of 8-FSX24T12/HO/UVB lamps (National Biological Corporation, Twinsburg, Ohio) that emits light predominantly in the UVB range, 280-320 nm was used to irradiate mice and cell cultures. The irradiance of UVB lamps was always measured before irradiation using a UVB meter (model—500C obtained from National Biological Corporation, Twinsburg, Ohio). The dose of UVB light used to irradiate cultures was 25 mj/cm^2. Anesthetized mice received UVB radiations to a 2.0 cm^2 area on their dorsal surface. […]
Confluent HaCaT cells cultured in 24-well culture dishes were washed three times with serum-free DMEM containing 1% bovine serum albumin (BSA) (Cayman chemicals, Ann Arbor, Mich.) and incubated with 3-30 μM compound compound 6 for 1 hour at 37° C. After incubation the cells were washed twice with PBS, and either exposed to 25 mj/cm^2 UVB light or stimulated with 50 ng/ml rhEGF, and fed with serum-free DMEM containing 1% BSA. compound 6 was readministered and the cells were incubated for 6 h at 37° C. […] Cellular protein was determined using the Pierce's BCA protein assay method (Smith, P. K., et al., 1985, Anal Biochem. 150 (1):76-85).

NOD females = assay: Spontaneous diabetes in NOD females (incidence, IPGTT, insulitis); assay type: in vivo, mouse
Method: Mice were monitored for diabetes development by testing blood glucose from 10 wk of age by One Touch Profile diabetes tracking system, as described above.
Intraperitoneal glucose tolerance test (IPGTI) was performed in the group of non-diabetic WHI-P131-treated and vehicle-treated control NOD females on the end of experimental period (25 wk of age of NOD mice). Mice were fasted for 10 hours, and the glucose solution (1.5 g/kg body weight) was injected i.p. Before and after injection of glucose, blood samples were taken and blood glucose levels were measured (as described above) at 0, 30, 60 and 120 min time points.
The group of control and WHI-P131-treated non-diabetic NOD females was sacrificed at the end of experimental period, at 25 wksof age, and characteristic histopathologic lesion of islets (insulitis) was evaluated in each mouse scoring at least 25 islets per mouse. Briefly, pancreas was removed, fixed in 10% formalin, parafin embedded, cut and stained with hematoxylin and eosin for light microscopic examinations.

NOD-scid/scid females = assay: Adoptive transfer of diabetes; assay type: in vivo, mouse; details: 50 mg/kg daily, up to week 5 post transfer
Method: Single-cell suspensions of splenic leucocytes pooled from 8-10 diabetic NOD females were prepared by passage through Nitex 110 mesh, and red blood cells were lysed in 10× Gey's solution. Aliquots of 1×10^7 splenocytes were adoptively transferred intravenously into 4-week-old NOD/Lt-scid/scid females (The Jackson Laboratory, Bar Harbor, Me.). […] Mice were monitored for diabetes development by testing urinary glucose every week from second week after the transfer by Chemstrip uGK strips (Boehringer Mannheim, Indianapolis, Ind.). Mice with glycosuria over 500 mg/dl (+++) on consecutive weekly tests were considered diabetic, with the first detection of chronic glycosuria taken as the date of IDDM onset.

C57BL/6 males = assay: Splenocyte populations after in vivo treatment (FACS); design: species or system mouse; details: 130 mg/kg for 10 days
Method: All Abs were purchased from Pharmingen, San Diego, Calif. Stained splenocytes were analyzed by FACS Calibur, as described above.

SMILES: COc1cc2ncnc(Nc3ccc(O)cc3)c2cc1OC [WHI-P131, 4-(4′-hydroxyl-phenyl)-amino-6,7-dimethoxyquinazoline]
- pEC50 (NALM-6 cells): 4.07
- inhibition at 30 µM [1]: ~90%
- diabetes incidence (NOD females; 20 mg/kg daily, till 18 wks of age): 56%
- age at which mice started to develop diabetes (NOD females; 50 mg/kg daily from 5 wks, control 13 wks): 22 wks
- diabetes incidence (NOD females; 50 mg/kg daily, 5 to 25 wks of age, at 25 wks): 18%
- diabetes incidence (NOD females; 100 mg/kg, 'the first treatment', at 25 wks of age, p=0.007): 9%
- diabetes incidence (NOD females; 100 mg/kg, 'the later one', at 25 wks of age, p=0.025): 18%
- age at which diabetes started (NOD females; 100 mg/kg, short course wks 5 to 9): 10 wks
- diabetes incidence (NOD females; 100 mg/kg, short course wks 5 to 9, by 25 wks of age): 83%
- Insulitis score (NOD females; 100 mg/kg, treated from 5-25 wks of age, controls 1.43±0.15): 0.86±0.12
- Insulitis score (NOD females; 100 mg/kg, treated from 10-25 wks of age): 1.42±0.24
- diabetic mice post adoptive transfer (NOD-scid/scid females): 8%
- percentages of CD3+, CD4+ and CD8+ T-cells and CD19+ B-cells vs vehicle (C57BL/6 males; data not shown): no differences
- number of CD4+ T-cells (C57BL/6 males; controls 20.5±0.6): 16.8±1.2 ×10^6
- number of CD3+ splenocytes (C57BL/6 males; controls 46.9±2.6): 37.7±3.2 ×10^6
- number of B-cells (C57BL/6 males; controls 78.2±6.1): 57.1±5.3 ×10^6
- Total number of splenocytes (C57BL/6 males; vehicle 154±8.5): 119±9.4 ×10^6
